In patent US20240173419A1, “CDK2 DEGRADERS AND USES THEREOF” (Kymera Therapeutics, Inc., priority 2022, published 2024):

Target: T1, CDK2 (Homo sapiens, UniProt P24941)
T1 construct: endogenous in cells; host or cells: MKN1 cells
Experiment: CDK2 degradation in MKN1 cells (AlphaLISA)
Assay type: cell-based
Conditions: 14 h incubation; for DC50: read-out: CDK2 degradation 14 h: Mean external-Abs DC50
Method: Degradation of CDK2 in MKN1 cells was measured using AlphaLISA technology (PerkinElmer ALSU-TCDK2-A10K). MKN1 cells were maintained in RPMI1640 medium containing 10% FBS+1× penn/strep. Cells were seeded in 96-well plates (Corning 3599) at a density of 2e4 cells per well in 80 μL of fresh complete growth medium. Cells were incubated overnight at 37° C., 5% CO2. Compounds were then added to the cell assay plates with a final top concentration of 10 μM in a 1:5 dilution series with a total of 11 doses (0.001 nM-10 μM). The final volume per well was 160 μL and the final DMSO concentration was 0.1%. Additionally, wells containing no cells and only complete growth medium were also maintained on the cell assay plates (‘no cell’ wells) and processed along with experimental wells. After 14 hour-incubation at 37° C., 5% CO2, the medium was removed and the cells were washed once with 100 μL of 1×PBS. Following removal of PBS, 40 μL of 1× Lysis Buffer containing 1× protease and phosphatase inhibitors (Roche 4693116001; Roche 4906837001) were added to each well. The cell assay plate was agitated on a plate shaker at 350 rpm for 10 minutes at room temperature. 10 μL of each cell lysate were transferred to a 384-well plate (PerkinElmer 6007290). 10 μL of control lysates (from PerkinElmer ALSU-TCDK2-A10K kit) were added to separate wells to generate a standard curve. Activation Buffer was prepared by diluting 25-fold in combined Reaction Buffer 1 and Reaction Buffer 2. Acceptor Beads were diluted 50-fold in combined Reaction Buffers. 5 μL of Acceptor Mix were added to each well. The plate was sealed with Topseal-Aadhesive film, covered with foil, and incubated in the dark for 1 hour at room temperature. Under subdued light, the Donor Beads were diluted 50-fold in Dilution Buffer. 5 μL of Donor Mix were added to each well under subdued light. The plate was sealed with Topseal-A adhesive film, covered with foil, and incubated in the dark for 1 hour at room temperature. Under subdued light, the plates were analyzed on an EnVision Microplate Reader (PerkinElmer Model 2009-0030). The average signal from ‘no cell’ wells was subtracted from the signal in experimental wells prior to calculating Alpha signal for test compounds and negative control (0.100 DMSO). The data were analyzed using Xlfit (v5.3. 1.3) and the dose-dependent CDK2 degradation data were fit using a four-parameter logistic model to calculate DC50.

CDK2 degradation 14 h: Average Dmax % | DC50 [nM] | Compound
B (B (>50% -75%)) | 100 to 500 | Cc1cc(S(=O)(=O)C2CCN(C3CC4(CCN(c5cccc6c5n(C)c(=O)n6C5CCC(=O)NC5=O)CC4)C3)CC2)ccc1Nc1ncc2c(n1)N(C1CCCC1)C(=O)C21CC1 (stereo not shown) [I-52]
A (A (>75% o)) | < 100 | Cc1cc(S(=O)(=O)C2CC3(CCN(CC4CCN(c5cccc6c5n(C)c(=O)n6C5CCC(=O)NC5=O)CC4)CC3)C2)ccc1Nc1ncc(C(F)(F)F)c(N2CCC(C(C)(C)O)C2)n1 (stereo not shown) [I-842]
A (A (>75% o)) | < 100 | Cc1cc(S(=O)(=O)NCCOC2CC3(C2)CN(CC#Cc2ccc4c(c2)n(C)c(=O)n4C2CCC(=O)NC2=O)C3)ccc1Nc1ncc2ccc(=O)n(C3CCCC3)c2n1 (stereo not shown) [I-473]
A (A (>75% o)) | < 100 | CC1(O)CCCN(c2nc(Nc3ccc(S(=O)(=O)NC4CCC(CN5CCN(c6ccc(C7CCC(=O)NC7=O)cc6F)CC5)CC4)cc3Cl)ncc2C(F)(F)F)C1 (stereo not shown) [I-1112]
A (A (>75% o)) | < 100 | Cc1cc(S(=O)(=O)NC2CCC(CN3CCN(c4cc(Cl)c(C5CCC(=O)NC5=O)cc4F)CC3)CC2)ccc1Nc1ncc(C(F)(F)F)c(N2CCCC(C)(O)C2)n1 (stereo not shown) [I-800]
A (A (>75% o)) | < 100 | Cc1cc(S(=O)(=O)NC2CCC(CN3CCN(c4ccc(C5CCC(=O)NC5=O)cc4C)CC3)CC2)ccc1Nc1ncc(C(F)(F)F)c(N2CCCC(C)(O)C2)n1 (stereo not shown) [I-811]
B (B (>50% -75%)) | < 100 | Cc1cc(S(=O)(=O)C2CC3(CCN(CC4CCN(c5ccc6c(c5F)n(C)c(=O)n6C5CCC(=O)NC5=O)CC4)CC3)C2)ccc1Nc1ncc(C(F)(F)F)c(N2CCCC(O)(C(F)F)C2)n1 (stereo not shown) [I-507]
A (A (>75% o)) | < 100 | Cc1cc(S(=O)(=O)NC2CC(N3CCN(CC4CCN(c5ccc(Cl)c(N6CCC(=O)NC6=O)c5)CC4)CC3)C2)ccc1Nc1ncc(C(F)(F)F)c(N2CCCC(C)(O)C2)n1 (stereo not shown) [I-722]
A (A (>75% o)) | < 100 | Cc1cc(S(=O)(=O)NC2CC(N3CCC(F)(CN4CCC(c5cccc6c5n(C)c(=O)n6C5CCC(=O)NC5=O)CC4)CC3)C2)ccc1Nc1ncc(C(F)(F)F)c(N2CCCC(C)(O)C2)n1 (stereo not shown) [I-699]
B (B (>50% -75%)) | < 100 | Cc1cc(S(=O)(=O)N2CCC(CN3CCN(Cc4cccc5c4n(C)c(=O)n5C4CCC(=O)NC4=O)CC3)CC2)ccc1Nc1ncc2ccc(=O)n(C3CCCC3)c2n1 (stereo not shown) [I-452]
A (A (>75% o)) | < 100 | Cc1cc(S(=O)(=O)N[C@H]2C[C@H](N3CCN(CC4CCN(c5cccc6c5n(C)c(=O)n6C5CCC(=O)NC5=O)CC4)CC3)C2)ccc1Nc1ncc(C(F)(F)F)c(N2CCC[C@@H](C(F)F)C2)n1 (stereo partly shown) [I-797]
A (A (>75% o)) | < 100 | Cc1cc(S(=O)(=O)NC2CCC(CN3CCN(c4ccc(NC5CCC(=O)NC5=O)cc4F)CC3)CC2)ccc1Nc1ncc(C(F)(F)F)c(N2CCCC(C)(O)C2)n1 (stereo not shown) [I-822]
B (B (>50% -75%)) | < 100 | Cc1cc(S(=O)(=O)C2CC3(CCN(CC4CCN(c5ccc6c(c5F)n(C)c(=O)n6C5CCC(=O)NC5=O)CC4)CC3)C2)ccc1Nc1ncc(C(F)(F)F)c(N2CCC(C(C)(C)O)C2)n1 (stereo not shown) [I-840]
A (A (>75% o)) | < 100 | Cc1cc(S(=O)(=O)NC2CC(N3CCN(CC4CCN(c5ccc(C6CCC(=O)NC6=O)c(Cl)c5)CC4)CC3)C2)ccc1Nc1ncc(C(F)(F)F)c(N2CCCC(C)(O)C2)n1 (stereo not shown) [I-714]
A (A (>75% o)) | < 100 | Cc1cc(S(=O)(=O)NCCOC2CCC3(CC2)CCN(CCCc2ccc4c(c2)n(C)c(=O)n4C2CCC(=O)NC2=O)CC3)ccc1Nc1ncc2ccc(=O)n(C3CCCC3)c2n1 (stereo not shown) [I-470]
D (D (<25%)) | > 1000 | Cc1cc(S(=O)(=O)C2CC3(CCN(CC4CCN(c5ccc6c(c5F)n(C)c(=O)n6C5CCC(=O)NC5=O)CC4)CC3)C2)ccc1Nc1ncc2cc(Cl)c(=O)n(C(C)C(C)(C)O)c2n1 (stereo not shown) [I-837]
C (C (>25% -50%)) | > 1000 | Cc1cc(S(=O)(=O)N2CCC(OCCCc3cccc4c3n(C)c(=O)n4C3CCC(=O)NC3=O)CC2)ccc1Nc1ncc2ccc(=O)n(C3CCCC3)c2n1 (stereo not shown) [I-454]
A (A (>75% o)) | < 100 | CC1(O)CCCN(c2nc(Nc3ccc(S(=O)(=O)NC4CCC5(CC4)CN(CC4CCN(c6ccc(C7CCC(=O)NC7=O)c(F)c6)CC4)C5)cc3F)ncc2C(F)(F)F)C1 (stereo not shown) [I-1064]
A (A (>75% o)) | < 100 | Cc1cc(S(=O)(=O)NCCO[C@H]2CC[C@H](CN3CCC(c4ccc5c(c4)n(C)c(=O)n5C4CCC(=O)NC4=O)CC3)CC2)ccc1Nc1ncc2cc(Cl)c(=O)n(C3CCCC34CC4)c2n1 (stereo partly shown) [I-439]
B (B (>50% -75%)) | 500 to 1000 | Cc1cc(S(=O)(=O)N2CCC(F)(CN(C)C3CCN(c4cccc5c4n(C)c(=O)n5C4CCC(=O)NC4=O)CC3)CC2)ccc1Nc1ncc2cc(Cl)c(=O)n(C3CCCC34CC4)c2n1 (stereo not shown) [I-358]
A (A (>75% o)) | < 100 | CC1CC(NS(=O)(=O)c2ccc(Nc3ncc(C(F)(F)F)c(N4CCCC(C)(O)C4)n3)c(F)c2)CCN1CC1CCN(c2ccc(C3CCC(=O)NC3=O)c(F)c2)CC1 (stereo not shown) [I-1060]
B (B (>50% -75%)) | 100 to 500 | Cc1cc(S(=O)(=O)N2CCN(CCCCOCCCc3ccc4c(c3)n(C)c(=O)n4C3CCC(=O)NC3=O)CC2)ccc1Nc1ncc2ccc(=O)n(C3CCCC3)c2n1 (stereo not shown) [I-459]
A (A (>75% o)) | < 100 | Cc1cc(S(=O)(=O)C2CCN(CCN3CCN(c4cccc5c4n(C)c(=O)n5C4CCC(=O)NC4=O)CC3)CC2)ccc1Nc1ncc2cc(Cl)c(=O)n(C(C)C)c2n1 (stereo not shown) [I-7]
A (A (>75% o)) | < 100 | Cc1cc(S(=O)(=O)NCCOC2CC3(C2)CN(Cc2ccc4c(c2)n(C)c(=O)n4C2CCC(=O)NC2=O)C3)ccc1Nc1ncc2ccc(=O)n(C3CCCC3)c2n1 (stereo not shown) [I-445]
B (B (>50% -75%)) | 100 to 500 | Cc1cc(S(=O)(=O)C2CC3(CCN(CC4CCN(c5ccc(NC6CCC(=O)NC6=O)c6ccccc56)CC4)CC3)C2)ccc1Nc1ncc2ccc(=O)n(C(C)C)c2n1 (stereo not shown) [I-206]
D (D (<25%)) | > 1000 | Cc1cc(S(=O)(=O)C2CC3(CCN(CC4CCN(c5ccc6c(c5F)n(C)c(=O)n6C5CCC(=O)NC5=O)CC4)CC3)C2)ccc1Nc1cc2cnc(Cl)cc2n(C2CCCC2)c1=O (stereo not shown) [I-825]
A (A (>75% o)) | < 100 | CC1(O)CCCN(c2nc(Nc3ccc(S(=O)(=O)NC4CCC(CN5CCN(c6ccc(C7CCC(=O)NC7=O)c(F)c6)CC5)CC4)cc3F)ncc2C(F)(F)F)C1 (stereo not shown) [I-1117]
B (B (>50% -75%)) | 100 to 500 | Cc1cc(S(=O)(=O)NC(C)COC2CCC(CN3CCN(c4ccc5c(c4F)n(C)c(=O)n5C4CCC(=O)NC4=O)CC3)CC2)ccc1Nc1ncc(C(F)(F)F)c(C2CCC(C)(O)CC2)n1 (stereo not shown) [I-845]
A (A (>75% o)) | < 100 | Cc1cc(S(=O)(=O)NC(C)COC2CCC(CN3CCN(c4cccc5c4n(C)c(=O)n5C4CCC(=O)NC4=O)CC3)CC2)ccc1Nc1ncc(C(F)(F)F)c(N2CCCC(C)(O)C2)n1 (stereo not shown) [I-851]
